From EP1068199B1, “N-ARYLOXYETHYL-INDOLY-ALKYLAMINES FOR THE TREATMENT OF DEPRESSION” (Wyeth, priority 1998, dated 1999) come the findings set out here.

Experiment [1] addresses T1, human 5-HT1A receptor subtype (Homo sapiens, UniProt P08908).
T1 construct: expressed in transfected cells
T1 sequence (P08908 1-422): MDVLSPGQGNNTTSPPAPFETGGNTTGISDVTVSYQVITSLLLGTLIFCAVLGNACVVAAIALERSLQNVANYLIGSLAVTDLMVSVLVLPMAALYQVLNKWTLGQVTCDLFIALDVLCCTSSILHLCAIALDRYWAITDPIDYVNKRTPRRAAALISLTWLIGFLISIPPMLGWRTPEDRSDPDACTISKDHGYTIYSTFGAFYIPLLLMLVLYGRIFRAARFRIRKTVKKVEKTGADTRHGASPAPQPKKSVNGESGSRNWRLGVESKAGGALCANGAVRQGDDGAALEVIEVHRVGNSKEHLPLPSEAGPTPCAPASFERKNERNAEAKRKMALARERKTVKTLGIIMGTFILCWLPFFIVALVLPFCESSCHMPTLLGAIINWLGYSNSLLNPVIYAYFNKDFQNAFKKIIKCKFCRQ
The experiment in a line: 5-HT1A receptor binding, [3H]8-OH-DPAT competition on h5-HT1A.CHO cell membranes. To be noted: [3H]8-OH-DPAT 1.5 nM.
Experimental: A stable Chinese hamster ovary cell line expressing the human 5-HT1A receptor subtype (h5-HT1A.CHO cells) was employed throughout this study. Cells were maintained in DMEM supplemented with 10% fetal calf serum, non-essential amino acids and penicillin/ streptomycin.
Cells were grown to 95-100% confluency as a monolayer before membranes were harvested for binding studies. Cells were gently scraped from the culture plates, transferred to centrifuge tubes, and washed twice by centrifugation (2000 rpm for 10 min., 4°C) in buffer (50 mM Tris; pH 7.5). The resulting pellets were aliquoted and placed at -80°C. On the day of assay, the cells were thawed on ice, and resuspended in buffer. Studies were conducted using [^3H]8-OH-DPAT as the radioligand. The binding assay was performed in 96 well microtiter plates in a final total volume of 250 µL of buffer. […] Non-specific binding was determined in the presence of 10 µM 5HT. Saturation analysis was conducted by using [^3H]8-OH-DPAT at concentrations ranging from 0.3-30 nM. Following a 30 minute incubation at room temperature, the reaction was terminated by the addition of ice cold buffer and rapid filtration using a M-96 Brandel Cell Harvester (Gaithersburg, MD) through a GF/B filter presoaked for 30 minutes in 0.5% polyethyleneimine.

For a further experiment, the target named is T2, serotonin transporter (Rattus norvegicus, UniProt P31652).
T2 construct: frontal cortical membranes prepared from male Sprague-Dawley rats; from tissue; host or cells: rat frontal cortex membranes (male Sprague-Dawley)
T2 sequence (P31652 whole entry): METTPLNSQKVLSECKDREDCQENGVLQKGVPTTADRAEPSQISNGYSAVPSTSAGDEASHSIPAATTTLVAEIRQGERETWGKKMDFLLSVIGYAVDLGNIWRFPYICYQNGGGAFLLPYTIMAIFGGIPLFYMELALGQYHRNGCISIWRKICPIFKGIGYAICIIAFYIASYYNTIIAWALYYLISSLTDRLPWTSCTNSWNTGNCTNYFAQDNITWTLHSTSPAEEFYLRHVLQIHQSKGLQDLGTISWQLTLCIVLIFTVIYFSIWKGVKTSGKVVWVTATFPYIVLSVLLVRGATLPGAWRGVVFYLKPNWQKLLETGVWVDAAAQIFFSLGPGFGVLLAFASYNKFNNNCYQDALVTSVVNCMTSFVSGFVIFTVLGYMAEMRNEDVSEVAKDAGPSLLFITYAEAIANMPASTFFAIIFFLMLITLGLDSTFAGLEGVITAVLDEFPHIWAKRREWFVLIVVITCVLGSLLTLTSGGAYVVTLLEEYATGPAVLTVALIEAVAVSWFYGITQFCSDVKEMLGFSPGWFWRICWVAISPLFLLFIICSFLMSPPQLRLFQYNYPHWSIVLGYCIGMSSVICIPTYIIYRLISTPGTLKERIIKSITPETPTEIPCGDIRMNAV
The experiment in a line: Serotonin transporter affinity, 3H-paroxetine binding to frontal cortical membranes. The settings on record: read-out: ST (Ki, nM,). Set-up: species or system male Sprague-Dawley rats.

A further experiment deals with T3, 5-HT1A cloned receptor (Homo sapiens, UniProt P08908).
T3 construct: expressed in transfected cells
T3 sequence (P08908 1-422): T1 sequence (P08908 1-422)
The experiment in a line: [35S]-GTPγS binding assay on 5-HT1A cloned receptor membrane fragments. The class given is biochemical. To be noted: maximum agonist response defined by excess 8-OH-DPAT. In general terms: Binding of GTPγS marks nucleotide exchange on a G protein.

Experimental for 5-HT1A cloned receptor: When needed, membranes were rapidly thawed, centrifuged at 40,000 x g for 10 minutes and resuspended at 4 °C for 10 minutes in assay buffer (25 mM HEPES, 3 mM MgCl2, 100 mM NaCI, 1 mM EDTA, 10 uM GDP, 500 mM DTT, pH 8.0). These membranes were then incubated for 30 min at 30 °C with [^35S]GTPgS (1 nM) in the presence of vehicle, test compound (one to eight concentrations), or excess 8-OH-DPAT to define maximum agonist response. All reactions are terminated by the addition of ice cold Tris buffer followed by rapid filtration using a Tom Tech® filtration device to separate bound from free [^35S]GTPgS.
Experimental for serotonin transporter: Briefly, frontal cortical membranes prepared from male Sprague-Dawley rats were incubated with ^3H-paroxetine (0.1 nM) for 60 min at 25°C. […] All reactions are terminated by the addition of ice cold Tris buffer followed by rapid filtration using a Tom Tech filtration device to separate bound from free ^3H-paroxetine.

For `O=c1[nH]c2cccc(OCCNCCCc3c[nH]c4ccccc34)c2[nH]1` [Example 2, 4-{2-[3-(1H-Indol-3-yl)-propylamino]-ethoxy}-1,3-dihydrobenzoimidazole-2-one], the Ki is 3.17 nM in experiment [1] and 2.09 nM at serotonin transporter. This compound yielded an Emax at 5-HT1A cloned receptor of 98.5%.

On to `O=C1Cc2c(OCCNCCCc3c[nH]c4ccccc34)ccc(F)c2N1` [Example 6, 7-Fluoro-4-{2-[3-(1H-indol-3-yl)-propylamino]-ethoxy}-1,3-dihydro-indol-2-one], for which the results for the Ki (in experiment [1]; on serotonin transporter) were 39.1 nM and 12 nM, respectively. Besides, the maximal effect (Emax) on 5-HT1A cloned receptor was determined as 49.9%.

As to `S=c1[nH]c2cccc(OCCNCCCc3c[nH]c4ccccc34)c2[nH]1` [Example 3, 4-{2-[3-(1H-Indol-3-yl)-propylamino]-ethoxy}-1,3-dihydrobenzoimidazole-2-thione], the figures for the Ki (in experiment [1]; on serotonin transporter) were 7.75 nM and 21 nM, respectively.

A word on the Ki: it is the dissociation constant of the complex between target and ligand, obtained from inhibition or displacement. As a reminder, the Emax is the greatest response seen or fitted, relative to the assay's reference.
